Source: article doi:10.1101/2023.10.01.560353v1 (bioRxiv, 2023)
Converted amounts (≈) assume the structure as drawn. Peptide text beside a SMILES is read from it.

Tested on: 11 clinically relevant bacterial pathogens
Assay: MIC over the panel of pathogens
Assay type: cell-based
Settings: Table S17; lowest MIC over the strains tested

Row | SMILES | MIC (lowest MIC value obtained in the antimicrobial activity assays) [mM]
1 | CC[C@H](C)[C@H](N)C(=O)N[C@H](C(=O)NCC(=O)N[C@@H](CC(N)=O)C(=O)N[C@H](C(=O)N[C@@H](Cc1ccccc1)C(=O)NCC(=O)N[C@@H](Cc1ccccc1)C(=O)N[C@@H](CCCCN)C(=O)N[C@@H](C)C(=O)N[C@@H](CC(C)C)C(=O)N[C@@H](CCCNC(=N)N)C(=O)N[C@@H](C)C(=O)N[C@@H](CC(C)C)C(=O)N[C@@H](CCCNC(=N)N)C(=O)N[C@@H](CC(C)C)C(=O)O)C(C)C)C(C)C [Hesperelin-4] (H-IVGNVFGFKALRALRL-OH) | 64000 (≈ 114000 mg/mL)
2 | CC[C@H](C)[C@H](NC(=O)[C@@H](N)[C@@H](C)O)C(=O)N[C@@H](CCCCN)C(=O)N[C@@H](CC(C)C)C(=O)N[C@@H](Cc1ccccc1)C(=O)N[C@@H](CC(C)C)C(=O)N[C@@H](CO)C(=O)N[C@@H](Cc1ccccc1)C(=O)N[C@@H](CCCCN)C(=O)N[C@@H](CC(C)C)C(=O)O [Xenothrixin-1] (H-TIKLFLSFKL-OH) | 8000 (≈ 9680 mg/mL)
3 | CC[C@H](C)[C@H](NC(=O)[C@H](CCCCN)NC(=O)[C@H](CO)NC(=O)[C@H](CC(N)=O)NC(=O)[C@H](Cc1ccccc1)NC(=O)[C@H](Cc1c[nH]cn1)NC(=O)[C@H](Cc1ccccc1)NC(=O)[C@@H](N)Cc1c[nH]c2ccccc12)C(=O)N[C@@H](CC(C)C)C(=O)N[C@@H](CC(C)C)C(=O)N[C@@H](CC(C)C)C(=O)N[C@H](C(=O)NCC(=O)N[C@@H](CC(C)C)C(=O)O)[C@@H](C)O [Mylodonin-1] (H-WFHFNSKILLLTGL-OH) | 8000 (≈ 13500 mg/mL)
4 | CC[C@H](C)[C@H](NC(=O)[C@H](CCCCN)NC(=O)[C@@H](N)CCCNC(=N)N)C(=O)N[C@@H](CC(C)C)C(=O)NCC(=O)N[C@@H](CC(=O)O)C(=O)N[C@@H](CC(C)C)C(=O)N[C@@H](CCCCN)C(=O)N[C@@H](Cc1ccccc1)C(=O)N[C@@H](CC(C)C)C(=O)N[C@@H](CCC(=O)O)C(=O)N[C@@H](CO)C(=O)N[C@@H](CC(C)C)C(=O)N[C@@H](CCCCN)C(=O)N[C@H](C(=O)N[C@@H](Cc1ccc(O)cc1)C(=O)O)[C@@H](C)O [Anomalopterin-1] (H-RKILGDLKFLESLKTY-OH) | 64000 (≈ 123000 mg/mL)
5 | CC[C@H](C)[C@H](NC(=O)[C@@H](NC(=O)[C@H](CCSC)NC(=O)[C@@H](N)Cc1c[nH]c2ccccc12)[C@@H](C)O)C(=O)N[C@@H](Cc1c[nH]cn1)C(=O)N[C@@H](C)C(=O)N[C@@H](CC(C)C)C(=O)N[C@@H](CCCCN)C(=O)N[C@@H](CC(C)C)C(=O)N[C@@H](CO)C(=O)N[C@@H](CC(C)C)C(=O)N[C@@H](CO)C(=O)N[C@@H](Cc1ccccc1)C(=O)N[C@@H](CCCCN)C(=O)N[C@@H](CC(C)C)C(=O)O [Mammutin-1] (H-WMTIHALKLSLSFKL-OH) | 2000 (≈ 3580 mg/mL)
6 | CC(C)C[C@H](NC(=O)[C@H](CC(C)C)NC(=O)[C@@H](NC(=O)[C@H](CCCNC(=N)N)NC(=O)[C@H](C)NC(=O)[C@H](Cc1ccccc1)NC(=O)[C@H](CCCNC(=N)N)NC(=O)[C@H](CO)NC(=O)[C@H](Cc1c[nH]c2ccccc12)NC(=O)[C@H](CCCNC(=N)N)NC(=O)[C@H](CC(C)C)NC(=O)[C@H](CCCCN)NC(=O)[C@H](CC(C)C)NC(=O)[C@@H](N)Cc1ccccc1)C(C)C)C(=O)O [Equusin-1] (H-FLKLRWSRFARVLL-OH) | 1000 (≈ 1810 mg/mL)
7 | CC[C@H](C)[C@H](N)C(=O)N[C@@H](CC(C)C)C(=O)N[C@H](C(=O)N[C@@H](CC(C)C)C(=O)N[C@@H](Cc1ccccc1)C(=O)N[C@H](C(=O)N[C@H](C(=O)N[C@@H](Cc1ccccc1)C(=O)N[C@@H](CCC(N)=O)C(=O)N[C@@H](CC(C)C)C(=O)N[C@@H](CCCCN)C(=O)N[C@H](C(=O)N[C@@H](CO)C(=O)N[C@@H](CCCCN)C(=O)N[C@@H](CC(C)C)C(=O)O)[C@@H](C)CC)[C@@H](C)CC)[C@@H](C)CC)[C@@H](C)O [Paleopropin-2] (H-ILTLFIIFQLKISKL-OH) | 16000 (≈ 28600 mg/mL)
